The results in this text go back to PMC9655874, “Analysis of Volatile Secondary Metabolites in Ocimum basilicum Cell Suspensions: Inhibition, In Silico Molecular Docking, and an ADMET Analysis against Proteolytic Enzymes of Rhynchophorus ferrugineus” (Plants, 2022).

For assay [1], the system named is R. ferrugineus adults. Briefly: whole plant or invertebrate. Type of assay: in vivo. The conditions noted are these: Rhynchophorus ferrugineus, read-out: LC50 (µg/mL) 95% CF. How it is done: (§1) Cells were suspended in the methanolic extract at serially increasing concentrations for 40 days. To dilute the compounds, TritonX-100 (0.1%) was added to acetone after the chemicals were dissolved. Adults or larvae of R. ferrugineus were purchased. They were then cultured using long lengths of sugar cane stem. The extracts’ anti-larvae action was assessed by applying topically to larvae and keeping them at 4–5 °C for 5 min. Utilizing a manually controlled micro-applicator, each larva had extract injected into its dorsum in three separate 10 µL doses using a 50-ll micro-syringe from Hertfordshire, UK’s Burkard Manufacturing Co., Ltd. (MS-N50; Shizuoka, Japan’s Ito Corp.). Five larvae in a box with three replications were fed on portions of long sugarcane stem measuring 10 cm. […] The sugarcane stem’s ten-centimeter-long portions cut into equal longitudinal halves were used to measure the antifeedant activity against adults. Long sections of sugarcane stem with a surface area of approximately 32.2 cm^2 were dried in air at room temperature, assuming a dipping time of 10 s and an initial serial concentration of (10 mL). Each treated object remained in a plastic container. Each box included an additional pair (male and female). Each therapy was administered ten times. In total, 24-, 48-, 72-, and 96-h feeding observations were assessed.
(§2) Statistics and probit analysis were performed using SPSS 25.0, as mentioned by Finney. To sum up, all numerical predictions of toxicity variables and findings were presented as the mean ± SE. We regressed mortality and translated the resulting dosage to an LC50 value (µg/mL). […] Enzyme activity data were analyzed using an ANOVA. Means were separated using the SNK (Student–Newman–Keuls) test, and deviations at the p ˂ 0.05 level were considered noteworthy.

Assay [2] relates to R. ferrugineus 4th larvae. Briefly: Topical application (contact insecticide) to fourth instar larvae. Type of assay: in vivo, Rhynchophorus ferrugineus. To be noted: for LD50 (µg/Larvae) 95% CF: 4th larvae, topical, 95% confidence limits in brackets; for LD50: larvae. How it is done: as §1, §2
In assay [3] the target is elastase of R. ferrugineus midgut. In words: Serine proteinase specific activity, elastase (in vitro). Type of assay: biochemical, Rhynchophorus ferrugineus. To be noted: 4th instar midgut homogenate.
Assay [4] concerns elastase of R. ferrugineus midgut. In words: Elastase activity in midgut of treated larvae (in vivo). Further details: species or system Rhynchophorus ferrugineus. To be noted: larvae treated 24 h, midgut preparation.
Assay [5] addresses trypsin proteinase of R. ferrugineus midgut. In words: Serine proteinase specific activity, trypsin (in vitro). To be noted: 4th instar midgut homogenate.
Procedure: (§4) We used a serine protease assay buffer and a modified version of the fast microplate method to analyze the serine proteinase’s specific activity in mixtures (150 µL) [26]. […] The sample (10 µL) was diluted using an assay buffer to 50 µL to determine the presence of trypsin proteinase, chymotrypsin proteinase, and elastase. Assay buffer was used to dilute stock substrates of BAρNA (100 mg/mL DMSO), both SAAPFρNA and SAAPLρNA (100 mg/mL DMF), to 1.0 mg/mL. To halt the reaction after 15 min of incubation at 37 °C, 50 µL of acetic acid (30%, v/v) was added. The intensity of the activity was measured using a 405 nm ELISA plate reader. A denaturation enzyme was used in place of an active enzyme in the experiment mixture. For three substrates (SAAPLρNA, BAρNA, and SAAPFρNA), activity levels of certain proteinases were assessed as OD mg^−1 protein min^−1.
(§5) An experiment that was set up free of potential inhibitors served as a control. An ELISA plate fast reader measured the enzymes’ absorption at various wavelengths. For each inhibitor, the control enzyme’s percentage activity was assessed for each enzyme. Four instars midgut larvae were treated with previous concentrations of extracts or compounds, assessed as previously mentioned, to measure the protease activity in vivo. Larvae were subjected to extract- and compound-treated leaf discs for 24 h.
Assay [6] relates to total proteases of R. ferrugineus midgut. In words: Total protease activity in midgut of treated larvae (in vivo). To be noted: larvae treated 24 h, midgut preparation.
Procedure: (§6) The homogenate of R. ferrugineus 4th midgut instar larvae (lab strain) was assayed for total proteolytic enzyme activity using azocasein, as Darrag et al. [26], with modifications. Ten 4th midgut larval homogenates were carefully removed, incised, and then rinsed in a solution containing 0.9% NaCl before even being homogenized in a buffer (500 µL) containing 5 mM dithiothreitol (DTT), 0.1% (v/v) Triton X-100, and 50 mM N-2-hydroxyethyl piperazine-N′-2-ethane sulphonic acid (HEPS), and 8.0 pH. It was spun in a centrifuge (Sigma 3k30), and the remaining homogenates were from a preliminary phase for 30 min at 5000 rpm. Using the supernatants, the protein concentration and proteolytic enzyme activity were determined. […] Before each reaction experiment, 40-day-old methanolic extract of cell suspension, pure chemicals, and 10 μL of enzyme specimens were incubated for 10 min. The addition of the substrate initiated the reaction, which was allowed for 20 min in the case of leupeptin before being terminated 180 min later by adding 300 µL of cold tri-chloroacetic acid (TCA) (10%, v/v). Twenty minutes were spent centrifuging the mixture at 5000 rpm (Sigma 3k30). Overall, 10 µL of NaOH (10 N) was added to the supernatant, and the absorbance was measured using an ELISA plate reader at 450 nm to quantify the enzymes’ specific activity as OD450/mg protein/h.
as §5
Assay [7] has as its target metalloprotease of R. ferrugineus midgut. Briefly: Metalloproteinase specific activity, CEGR substrate (in vitro). To be noted: 4th instar midgut homogenate.
Procedure: (§7) The ten midgut larvae from the fourth stage were neatly eliminated, dissected, and repeatedly washed with 0.9% NaCl solution. A 500 µL protease test solution, including 50 mM HEPS, 0.1% Triton X-100, and 5 mM DTT (pH 8.0), was utilized to homogenize the midgut instar. The homogenates were then centrifuged employing a Sigma 3k30 (cooling centrifuge) at 5000 rpm for 30 min to evaluate the supernatant’s enzyme activity and protein content. Before introducing CEGR (125 µL, 2% (w/v)), each experiment’s supernatant (10 µL) was incubated in an assay buffer (60 µL) at 37 °C for 20 min (pH 8). During a 10 min incubation period without a substrate, 10 µL enzyme samples were tested (20 min. for EDTA, EGTA, 1.10, Phenanthroline). After 180 min at 37 °C, 300 µL of cold TCA, 10% (v/v), was used to terminate the reaction. For the next 20 min, the mixture was spun (5000 rpm, Sigma 3K30). The absorbance was measured at 450 nm after mixing the supernatant with hydroxide solution (10 µL, 10 N) using an ELISA reader. An enzyme-free assay combination was utilized as a blank, and particular activity was evaluated utilizing the OD493 mg^−1 protein min^−1 and an enzyme-free blank specimen.
as §5
In assay [8] the test system is metalloprotease of R. ferrugineus midgut. Briefly: Metalloprotease activity in midgut of treated larvae (in vivo). The conditions noted are these: larvae treated 24 h, midgut preparation.
Procedure: as §7, §5
In assay [9] the target is total proteases of R. ferrugineus midgut. In words: Total proteolytic enzyme activity of 4th instar midgut homogenate, azocasein (in vitro).
Procedure: as §6, §5
Assay [10] has as its target cysteine protease of R. ferrugineus midgut. In words: Cysteine proteinase activity (in vitro). The conditions noted are these: 4th instar midgut homogenate. Type of assay: biochemical, Rhynchophorus ferrugineus. How it is done: (§3) Utilizing the substrate N-benzoyl-Phe-Val-Arg-p-nitroanilide hydrochloride and certain modifications, the cysteine proteinases of R. ferrugineus homogenate from the fourth midgut instar was tested for activity. Ten larvae of the fourth midgut were carefully taken out, dissected, and periodically washed with 0.9% (w/v) NaCl solution, assay buffer containing 50 mM HEPS, 5 mM DTT, and 0.1% Triton X-100 (v/v) (pH 8.0, 500 µL) was used to homogenize the samples. The homogenates were spun using a cooling Sigma 3k30 centrifuge for 30 min at 5000 rpm. […] Before introducing 100 µL of the substrate, 10 µL of the supernatant was incubated in assay buffer (60 µL, pH = 8) at 37 °C for 30 min. Enzyme samples in 10 µL were incubated for 10 min with iodoacetic acid before the addition of the substrate. […] The absorbance at 520 nm was measured after spinning the reaction for 6 min at 5000 rpm. The activity in the midgut was assayed at OD520.60 min^−1 mg^−1 of protein with an ELISA rapid reader.

The subject of assay [11] is cysteine protease of R. ferrugineus midgut. In words: Cysteine protease activity in midgut of treated larvae (in vivo). On the set-up: species or system Rhynchophorus ferrugineus. The conditions noted are these: larvae treated 24 h, midgut preparation. How it is done:
as §3

Assay [12] has as its system trypsin proteinase of R. ferrugineus midgut. Briefly: Trypsin activity in midgut of treated larvae (in vivo). To be noted: larvae treated 24 h, midgut preparation.
Procedure: as §4, §5

Values after ≈ are worked out from the molar mass of the structure shown.

With `CC12CCC(CC1)C(C)(C)O2` [1,8-cineole], the LC50 in assay [1] was determined as 1430 µg/mL (≈ 9240 µM). Besides, in [2], the “LD50 (µg/Larvae) 95% CF” value is 13.9 (12.8–14.7) µg/Larvae and the LD50 stood at 13.9 µg/larva. For the same compound, the LD50 in [2] (topical application) came out at 13.9 µg/larva. Besides, the “IC50 elastase (in vitro)” value in assay [3] was determined as 119.4 µg/mL (≈ 774 µM). Besides, the “IC50 elastase (in vivo)” value in assay [4] turned out to be 256.3 µg/mL (≈ 1660 µM). Further, the “IC50 trypsin proteinase (in vitro)” value in assay [5] worked out at 271.2 µg/mL (≈ 1760 µM). In addition, the “IC50 total proteases (in vivo)” value in [6] is listed as 193.1 µg/mL (≈ 1250 µM). The “IC50 metalloprotease (in vitro)” value in [7] worked out at 708.2 µg/mL (≈ 4590 µM). In assay [8], the “IC50 metalloprotease (in vivo)” value is recorded as 1297.2 µg/mL (≈ 8410 µM). Moreover, in assay [9], the “IC50 total proteases (in vitro)” value came to 91.5 µg/mL (≈ 593 µM).
In the case of `C=CCc1ccc(O)c(OC)c1` [eugenol], the LC50 in assay [1] was 1460 µg/mL (≈ 8890 µM). In [2], the “LD50 (µg/Larvae) 95% CF” value was 14.2 (13.1–15.4) µg/Larvae. The LD50 in assay [2] and in assay [2] (topical application) was 14.2 µg/larva throughout. Besides, in assay [3], the “IC50 elastase (in vitro)” value is 165.7 µg/mL (≈ 1010 µM). In assay [10], the “IC50 cysteine protease (in vitro)” value came out at 294.4 µg/mL (≈ 1790 µM). In addition, in assay [4], the “IC50 elastase (in vivo)” value turned out to be 346.8 µg/mL (≈ 2110 µM). Also, the “IC50 cysteine protease (in vivo)” value in assay [11] is recorded as 453.1 µg/mL (≈ 2760 µM). The “IC50 trypsin proteinase (in vivo)” value in assay [12] was found to be 612.8 µg/mL (≈ 3730 µM). In assay [5], the “IC50 trypsin proteinase (in vitro)” value is listed as 247.2 µg/mL (≈ 1510 µM). The “IC50 total proteases (in vivo)” value in assay [6] is reported as 201.4 µg/mL (≈ 1230 µM). Moreover, in assay [7], the “IC50 metalloprotease (in vitro)” value was 478.6 µg/mL (≈ 2910 µM). Also, in assay [9], the “IC50 total proteases (in vitro)” value was determined as 97.6 µg/mL (≈ 594 µM).
Regarding `C=CC(C)(O)CCC=C(C)C` (centres unmarked) [linalool], the LC50 in assay [1] was found to be 1400 µg/mL (≈ 9060 µM). For the same compound, in assay [2], the “LD50 (µg/Larvae) 95% CF” value was 13.7 (12.6–14.8) µg/Larvae and the LD50 amounted to 13.7 µg/larva. Besides, the LD50 in [2] (topical application) turned out to be 13.7 µg/larva. The “IC50 elastase (in vitro)” value in assay [3] worked out at 104.2 µg/mL (≈ 676 µM). In addition, in [10], the “IC50 cysteine protease (in vitro)” value is 189.2 µg/mL (≈ 1230 µM). Also, the “IC50 elastase (in vivo)” value in assay [4] turned out to be 217.2 µg/mL (≈ 1410 µM). For the same compound, the “IC50 cysteine protease (in vivo)” value in assay [11] is given as 348.2 µg/mL (≈ 2260 µM). Further, the “IC50 trypsin proteinase (in vivo)” value in assay [12] was determined as 137.5 µg/mL (≈ 891 µM). Moreover, the “IC50 trypsin proteinase (in vitro)” value in [5] is reported as 63.4 µg/mL (≈ 411 µM). Further, in [6], the “IC50 total proteases (in vivo)” value was 192.7 µg/mL (≈ 1250 µM). The “IC50 metalloprotease (in vitro)” value in assay [7] was 278.2 µg/mL (≈ 1800 µM). Also, the “IC50 total proteases (in vitro)” value in [9] worked out at 90.7 µg/mL (≈ 588 µM).
For `C=C(C)C1CCC(C)(O)CC1` (stereo not drawn) [β-terpineol], in assay [1], the LC50 was determined as 3920 µg/mL (≈ 25400 µM). Moreover, in assay [2], the “LD50 (µg/Larvae) 95% CF” value is recorded as 42.6 (39.7–44.3) µg/Larvae. The compound further gave an LD50 in [2] (topical application) of 42.6 µg/larva. In addition, the “IC50 elastase (in vitro)” value in [3] is listed as 112.6 µg/mL (≈ 730 µM). The “IC50 cysteine protease (in vitro)” value in assay [10] was determined as 287.3 µg/mL (≈ 1860 µM). The “IC50 elastase (in vivo)” value in assay [4] worked out at 239.4 µg/mL (≈ 1550 µM). Besides, the “IC50 cysteine protease (in vivo)” value in [11] worked out at 427.4 µg/mL (≈ 2770 µM). Further, the “IC50 trypsin proteinase (in vivo)” value in [12] came to 237.1 µg/mL (≈ 1540 µM). The “IC50 trypsin proteinase (in vitro)” value in assay [5] was found to be 168.4 µg/mL (≈ 1090 µM). For the same compound, the “IC50 total proteases (in vivo)” value in assay [6] is 379.5 µg/mL (≈ 2460 µM). Also, the “IC50 metalloprotease (in vitro)” value in [7] came to 543.5 µg/mL (≈ 3520 µM). Further, the “IC50 metalloprotease (in vivo)” value in assay [8] is recorded as 1175.2 µg/mL (≈ 7620 µM). The “IC50 total proteases (in vitro)” value in [9] is given as 281.7 µg/mL (≈ 1830 µM).
